Experimental data published in patent US20240317754A1 (priority 2020, published 2024).
“Also recorded” adds a separate entry of the source. Where two headings read alike, the source gives them in different places.

How the values were obtained:
SARS-CoV-2 (B.1) = test: microbe, parasite or virus in culture; type: cell-based
SARS-CoV-2 replicon = test: microbe, parasite or virus in culture; type: cell-based; details: HEK293T cells; for inhibition at 10 µM / IC50: Severe acute respiratory syndrome coronavirus 2, HEK-293T, 60 h
SARS-CoV replicon = test: microbe, parasite or virus in culture; type: cell-based; details: for IC50 / inhibition at 10 µM: Severe acute respiratory syndrome coronavirus, HEK-293T, 60 h
SARS-CoV-2 = test: In vivo efficacy against SARS-CoV-2 in hACE2 humanized mice
[1] = PK study in cynomolgus monkeys; type: in vivo
Procedure: Three male cynomolgus monkeys weighing 3-5 kg were used for the pharmacokinetic study. Compound AVT006 was administered intragastrically with the dose of 10 mg/kg on day 1. After administration, the blood samples for plasma were collected from a jugular vein from each monkey over 48 hours. The plasma samples (1 mL) were obtained at predose, and 0.083, 0.25, 0.5, 1, 2, 4, 8, 24 and 48 h postdose. After recovery for three days, compound AVT006 was administered intravenously with a dose of 5 mg/kg at day 5. The blood samples for plasma were collected from a jugular vein from each monkey over 48 hours. 1 mL plasma samples were obtained at predose, and 0.083, 0.25, 0.5, 1, 2, 4, 8, 24 and 48 h postdose. Samples were treated with anticoagulant EDTA-K2 and centrifuged under 2000 g for 10 min at 4° C. The supernatants (plasma) were collected and stored at −65° C. for future analysis. The drug concentration in each sample was tested by Watson LIMS 7.5 SP1 HPLC/MS. The pharmacokinetic parameters were calculated using WinNonlin 6.3 software.

MHV-A59 = test: In vivo efficacy in murine hepatitis virus (MHV-A59) infected BALB/c mice
From the text: • Mice: SPF-grade male BALB/c mice, 100, weighing 18-22 g. • Operation: The experimental mice were infected with MHV-A59 nasal drops and randomly divided into ten groups (n=10 each).
The mice were monitored daily for disease symptoms, including body weight, clinical symptoms, and death, for 14 days. Record the body weight changes of mice in each treatment group after virus infection (FIG. 4A) and survival curves (FIG. 4B). The fluorescence quantitative PCR method was used to determine the virus titer in mouse liver 72 hours after virus infection (FIG. 4C).

[2] = as reported by NIH OpenData Portal; species not printed (context non-human primates); cited from earlier work
[3] = male, cynomolgus monkey, plasma, IV 5 mg/kg, analyzed ATV006

In the case of `CC(C)C(=O)OC[C@H]1O[C@@](C#N)(c2ccc3c(N)ncnn23)[C@H](O)[C@@H]1O` [ATV006, ((2R,3S,4R,5R)-5-(4-aminopyrrolo[2,1-f][1,2,4]triazin-7-yl)-5-cyano-3,4-dihydroxytetrahydrofuran-2-yl)methyl isobutyrate], the IC50 (SARS-CoV-2 (B.1); Severe acute respiratory syndrome coronavirus 2, Vero C1008, 48 h) is reported as 1.36 µM, the “antiviral activity relative to GS-441524” value (SARS-CoV-2 replicon; in words) is reported as “lower IC50 values and higher antiviral activity” and the “inhibition of SARS-CoV-2 replicon replication” value (SARS-CoV-2 replicon; in words) is reported as “significant inhibitory effects”. For the same compound, the inhibition at 10 µM (SARS-CoV-2 replicon) was 98.6%, the IC50 (SARS-CoV-2 replicon) was 0.51 µM and the “activity relative to GS-441524” value (SARS-CoV replicon) was “twice that of compound GS-441524”. The IC50 (SARS-CoV replicon) was 0.57 µM, the inhibition at 10 µM (SARS-CoV replicon) was 99.2% and the “amount of viral genome (N gene) in lung tissue” value (SARS-CoV-2) was “significantly lower than that in the control group”. The “amount of viral subgenome (subgenomic N) in lung tissue” value (SARS-CoV-2) was “significantly lower than that in the control group”, the “metabolism to GS-441524” value ([1]; in words) was “quickly metabolized into the active metabolite GS-441524” and the AUC(0-inf) [1, 3] was 19.6 ± 5.43 ng·h/mL. It also gave an AUC(0-t) [1, 3] of 19.4 ± 5.35 ng·h/mL, a Cmax [1, 3] of 132 ± 37.4 ng/mL and a Tmax [1, 3] of 5 min. The half-life [1, 3] was 4.15 ± 0.446 min, the “day after infection on which mice began to die” value (MHV-A59; BALB/c mice, 2 mg/kg IG) was 4 days and the median death rate (MHV-A59; BALB/c mice, 2 mg/kg IG) was 6 days. The mortality rate (MHV-A59; BALB/c mice, 2 mg/kg IG, by day 10 after infection, vs control group p=0.0291) was 100%, the survival (MHV-A59; BALB/c mice, 2 mg/kg IG, in words, 2 mg/kg) was “positive effect in prolonging the survival time of animals; also recorded: increased the survival rate” and the “death and weight loss of mice” value (MHV-A59; BALB/c mice, ATV006 IG at doses except 2 mg/kg (5-50 mg/kg), 14 days, in words) was “can avoid the death and weight loss of mice at low doses”. The “antiviral activity in vivo compared with GS-441524 and RDV” value (MHV-A59; BALB/c mice, in words) was “better antiviral activity in vivo”, the “replication of the virus in the liver” value (MHV-A59; BALB/c mice, virus titer in liver 72 hours after infection, in words) was “significantly inhibit the replication of the virus in the liver” and the antiviral effect (MHV-A59; mice, medium dose 5 mg/kg-50 mg/kg, in words) was “excellent antiviral effect in a dose-dependent manner”.

Compound `N#C[C@@]1(c2ccc3c(N)ncnn23)O[C@H](CO)[C@@H](O)[C@H]1O` [GS-441524, reference compound] has an IC50 (SARS-CoV-2 (B.1)) of 2.28 µM, an inhibition at 10 µM (SARS-CoV-2 replicon) of 99.8% and an IC50 (SARS-CoV-2 replicon) of 0.95 µM. The IC50 (SARS-CoV replicon) was 1.1 µM, the inhibition at 10 µM (SARS-CoV replicon) was 99.8% and the bioavailability [2] was 8.3%.
